Measurements published in patent US20210260010A1, “COMPOSITIONS AND METHODS FOR THE REDUCTION OR TREATMENT OF INFLAMMATION” (AXCELLA HEALTH INC., priority 2018, published 2021).

Experiments:
[1] = test system: IL-6; assay: IL-6 cytokine secretion by TNFα-stimulated primary human hepatic stellate cells (ELISA); format: cell-based; conditions: for IL-6 cytokine secretion, per-cell normalized, fold change from plasma amino acid background: primary human hepatic stellate cells, two donors, TNFα 3 ng/mL, 12 hours
Procedure: Primary human hepatic stellate cells were obtained from Samsara Sciences and grown in Complete HSC Medium to […] confluence in T75 or T150 flasks below passage 10 were seeded into 96-well plates and incubated for 6 hours at 37° C., 5% CO2 in a humidified incubator. After 6 hours, plates were removed from the incubator washed with DPBS and pretreated (±single amino acid dropout, ±supplemental amino acid dose; see experiment for medium composition) overnight, ˜14-15 hours. After overnight pretreatment, the medium was removed from the cells, and the same pretreatment medium, now supplemented with 3 ng/mL TNFα was applied. Plates were incubated for 12 hours at 37° C., 5% CO2. After 12 hour stimulus with TNFα, supernatant was removed and frozen at −80° C. in two separate aliquots. Plates were washed and incubated with CCK-8 viability reagent (Dojindo) for 1 hour. Viability was measured on the Synergy plate reader. Immediately, the medium was removed and the plates were fixed for immunofluorescence staining.
Human CCL2/MCP1 and Human IL-6 were measured by ELISA (Human […] DuoSet ELISA, R&D Systems; Human IL-6 DuoSet ELISA, R&D Systems) at ⅕ and 1/20 dilution in 1× Reagent Diluent (Reagent Ancillary Kit 2, R&D Systems). Data were normalized to the specific per well cell density determined by Hoechst stained nuclei count.
Tables 39-42 show per-cell normalized IL-6 cytokine secretion in primary human hepatic stellate cells from two donors as a fold change from the plasma amino acid background. Statistical significance calculated by one-way ANOVA with Dunnett's multiple comparison test within each treatment group.

[2] = test system: CCL18; assay: IL-4 induced CCL18 secretion in primary human monocyte-derived macrophages (ELISA); format: cell-based; conditions: for Donor 1 CCL18 Measurements Mean / Donor 2 CCL18 Measurements Mean: relative to vehicle control; for CCL18 Measurements: Mean (fold change relative to vehicle control): Donor 3, IL-4 induced; for IL-4 induced CCL18 secretion (fold change relative to vehicle control): macrophages
Procedure: Lymphocytes were purified from unpurified buffy coats (Research Blood Components) using Lymphocyte Separation Medium (Corning). After centrifugation, the PBMC layer was extracted and rinsed several times using Dulbecco's phosphate-buffered saline (DPBS; Gibco). After straining PBMCs through a 70 uM cell strainer, cells were resuspended and counted using a Cellometer K2 automated cell counter.
CD14+ cells were selected using EasySep™ Human CD14 Positive Selection Kit II ([…] Technologies) according to manufacturer-supplied protocols. Following isolation CD14+ cells were seeded into 10 cm tissue culture plates and differentiated into macrophages using M-CSF (Peprotech).
On day 0, primary human PBMC derived macrophages were seeded in Dulbecco's Modified Eagle Medium (DMEM) (Gibco) supplemented with penicillin-streptomycin (Hyclone) and 10% heat inactivated fetal bovine serum (HI-FBS) (Atlanta Bio) into 96-well microplates (ThermoFisher) and incubated overnight at 37° C., 5% CO2. On day 1, cells were washed once with DPBS and then treated with: • a. Amino acid free DMEM (US Biologicals) containing a defined custom amino acid concentration based on the mean physiological concentrations in blood based on values published in the Human Metabolome Database (HMDB), with 6 mM glucose, 1 mM sodium pyruvate, 10 mM HEPES, penicillin-streptomycin; or • b. The same medium described above with one amino acid or amino acid combination at various concentrations
On day 2, cells were treated with the same mediums described above supplemented with recombinant human interleukin-4 (IL-4; Peprotech). Control wells were treated with tofacitinib (Tocris) and IL-4, PBS with IL-4, or phosphate buffered saline (PBS) alone.
On day 3, the supernatant was collected and immediately frozen in −80° C. freezer. Cells were washed once with DPBS and viability was assessed using the WST-8 Cell Proliferation Cytotoxicity Assay (Dojindo) according to manufacturer-supplied protocol. Following the assay, cells were washed twice with PBS and fixed with 4% paraformaldehyde. Protein levels in supernatant samples were analyzed by ELISA for CCL18 using commercially available kits (R&D Systems) according to manufacturer-supplied protocols.

## CC(=O)N[C@@H](CS)C(=O)O [NAC, N-acetylcysteine]
[1]; donor 1, Conc. 5 X
  Fold Change IL-6 Secretion Normalized Per Cell: 0.7141
[1]; donor 1, Conc. 10 X
  Fold Change IL-6 Secretion Normalized Per Cell: 0.7354
[1]; donor 1, Conc. 20 X
  Fold Change IL-6 Secretion Normalized Per Cell: 0.6121
[1]; donor 1, Conc. 40 X
  Fold Change IL-6 Secretion Normalized Per Cell: 0.5716
[1]; donor 2, Conc. 5 X
  Fold Change IL-6 Secretion Normalized Per Cell: 0.9161
[1]; donor 2, Conc. 10 X
  Fold Change IL-6 Secretion Normalized Per Cell: 0.9180
[1]; donor 2, Conc. 20 X
  Fold Change IL-6 Secretion Normalized Per Cell: 0.8111
[1]; donor 2, Conc. 40 X
  Fold Change IL-6 Secretion Normalized Per Cell: 0.7064
[1]
  IL-6 cytokine secretion, per-cell normalized, fold change from plasma amino acid background: reduced IL-6 secretion in both donors but was only statistically significant in one of two donors
[2]; Donor 1, Conc. 4 X
  Donor 1 CCL18 Measurements Mean: 1.831 fold change
[2]; Donor 1, Conc. 10 X
  Donor 1 CCL18 Measurements Mean: 1.979 fold change
[2]; Donor 1, Conc. 20 X
  Donor 1 CCL18 Measurements Mean: 2.206 fold change
[2]; Donor 1, Conc. 40 X
  Donor 1 CCL18 Measurements Mean: 2.464 fold change
[2]; Donor 2, Conc. 5 X
  Donor 2 CCL18 Measurements Mean: 1.326 fold change
[2]; Donor 2, Conc. 10 X
  Donor 2 CCL18 Measurements Mean: 1.293 fold change
[2]; Donor 2, Conc. 20 X
  Donor 2 CCL18 Measurements Mean: 1.169 fold change
[2]; Donor 2, Conc. 40 X
  Donor 2 CCL18 Measurements Mean: 1.517 fold change
[2]; Conc. 5 X
  CCL18 Measurements: Mean (fold change relative to vehicle control): 1.324 fold change
[2]; Conc. 10 X
  CCL18 Measurements: Mean (fold change relative to vehicle control): 1.67 fold change
[2]; Conc. 20 X
  CCL18 Measurements: Mean (fold change relative to vehicle control): 1.812 fold change
[2]; Conc. 40 X
  CCL18 Measurements: Mean (fold change relative to vehicle control): 1.887 fold change
[2]; Donor 1
  IL-4 induced CCL18 secretion (fold change relative to vehicle control): significantly increased
[2]; Donor 2
  IL-4 induced CCL18 secretion (fold change relative to vehicle control): significantly increased

## CC[C@H](C)[C@H](N)C(=O)O [Isoleucine, L-Isoleucine]
[1]; donor 1, Conc. 66 μM (plasma background, reference)
  Fold Change IL-6 Secretion Normalized Per Cell: 1.0000
[1]; donor 2, Conc. 66 μM (plasma background, reference)
  Fold Change IL-6 Secretion Normalized Per Cell: 1.0000
[1]
  IL-6 cytokine secretion, per-cell normalized, fold change from plasma amino acid background: no significant effect
[2]; Donor 1, Conc. 66 μM
  Donor 1 CCL18 Measurements Mean: 1.07 fold change
[2]; Donor 1, Conc. 1328 μM
  Donor 1 CCL18 Measurements Mean: 1.12 fold change
[2]; Donor 1, Conc. 3320 μM
  Donor 1 CCL18 Measurements Mean: 1.181 fold change
[2]; Donor 1, Conc. 6639 μM
  Donor 1 CCL18 Measurements Mean: 0.9823 fold change
[2]; Donor 2, Conc. 66 μM
  Donor 2 CCL18 Measurements Mean: 1.204 fold change
[2]; Donor 2, Conc. 1328 μM
  Donor 2 CCL18 Measurements Mean: 1.461 fold change
[2]; Donor 2, Conc. 3320 μM
  Donor 2 CCL18 Measurements Mean: 1.503 fold change
[2]; Donor 2, Conc. 6639 μM
  Donor 2 CCL18 Measurements Mean: 1.685 fold change
[2]; Conc. 66 μM
  CCL18 Measurements: Mean (fold change relative to vehicle control): 1.056 fold change
[2]; Conc. 1328 μM
  CCL18 Measurements: Mean (fold change relative to vehicle control): 1.026 fold change
[2]; Conc. 3320 μM
  CCL18 Measurements: Mean (fold change relative to vehicle control): 1.431 fold change
[2]; Conc. 6639 μM
  CCL18 Measurements: Mean (fold change relative to vehicle control): 1.111 fold change
[2]; Donor 2
  IL-4 induced CCL18 secretion (fold change relative to vehicle control): significantly increased

## N=C(N)NCCC[C@H](N)C(=O)O [Arginine, L-Arginine]
[1]; donor 1, Conc. 109 μM (plasma background, reference)
  Fold Change IL-6 Secretion Normalized Per Cell: 1.0000
[1]; donor 1, Conc. 1088 μM
  Fold Change IL-6 Secretion Normalized Per Cell: 0.9828
[1]; donor 1, Conc. 2720 μM
  Fold Change IL-6 Secretion Normalized Per Cell: 1.0231
[1]; donor 1, Conc. 5440 μM
  Fold Change IL-6 Secretion Normalized Per Cell: 0.7776
[1]; donor 2, Conc. 109 μM (plasma background, reference)
  Fold Change IL-6 Secretion Normalized Per Cell: 1.0000
[1]; donor 2, Conc. 1088 μM
  Fold Change IL-6 Secretion Normalized Per Cell: 0.9924
[1]; donor 2, Conc. 2720 μM
  Fold Change IL-6 Secretion Normalized Per Cell: 0.9401
[1]; donor 2, Conc. 5440 μM
  Fold Change IL-6 Secretion Normalized Per Cell: 0.8895
[1]
  IL-6 cytokine secretion, per-cell normalized, fold change from plasma amino acid background: no significant effect
[2]; Donor 1, Conc. 109 μM
  Donor 1 CCL18 Measurements Mean: 1.131 fold change
[2]; Donor 1, Conc. 1088 μM
  Donor 1 CCL18 Measurements Mean: 1.068 fold change
[2]; Donor 1, Conc. 2720 μM
  Donor 1 CCL18 Measurements Mean: 1.121 fold change
[2]; Donor 1, Conc. 5440 μM
  Donor 1 CCL18 Measurements Mean: 1.277 fold change
[2]; Donor 2, Conc. 109 μM
  Donor 2 CCL18 Measurements Mean: 0.9634 fold change
[2]; Donor 2, Conc. 1088 μM
  Donor 2 CCL18 Measurements Mean: 0.9846 fold change
[2]; Donor 2, Conc. 2720 μM
  Donor 2 CCL18 Measurements Mean: 1.031 fold change
[2]; Donor 2, Conc. 5440 μM
  Donor 2 CCL18 Measurements Mean: 1.089 fold change
[2]; Conc. 109 μM
  CCL18 Measurements: Mean (fold change relative to vehicle control): 1.138 fold change
[2]; Conc. 1088 μM
  CCL18 Measurements: Mean (fold change relative to vehicle control): 0.9131 fold change
[2]; Conc. 2720 μM
  CCL18 Measurements: Mean (fold change relative to vehicle control): 1.208 fold change
[2]; Conc. 5440 μM
  CCL18 Measurements: Mean (fold change relative to vehicle control): 1.206 fold change

## CC(C)[C@H](N)C(=O)O [Valine, L-Valine]
[1]; donor 1, Conc. 234 μM (plasma background, reference)
  Fold Change IL-6 Secretion Normalized Per Cell: 1.0000
[1]; donor 2, Conc. 234 μM (plasma background, reference)
  Fold Change IL-6 Secretion Normalized Per Cell: 1.0000
[1]
  IL-6 cytokine secretion, per-cell normalized, fold change from plasma amino acid background: no significant effect
[2]; Donor 1, Conc. 234 μM
  Donor 1 CCL18 Measurements Mean: 1.109 fold change
[2]; Donor 1, Conc. 4684 μM
  Donor 1 CCL18 Measurements Mean: 1.264 fold change
[2]; Donor 1, Conc. 11710 μM
  Donor 1 CCL18 Measurements Mean: 1.442 fold change
[2]; Donor 1, Conc. 23420 μM
  Donor 1 CCL18 Measurements Mean: 0.9491 fold change
[2]; Donor 2, Conc. 234 μM
  Donor 2 CCL18 Measurements Mean: 1.255 fold change
[2]; Donor 2, Conc. 4684 μM
  Donor 2 CCL18 Measurements Mean: 1.545 fold change
[2]; Donor 2, Conc. 11710 μM
  Donor 2 CCL18 Measurements Mean: 1.998 fold change
[2]; Donor 2, Conc. 23420 μM
  Donor 2 CCL18 Measurements Mean: 2.269 fold change
[2]; Conc. 234 μM
  CCL18 Measurements: Mean (fold change relative to vehicle control): 0.7896 fold change
[2]; Conc. 4684 μM
  CCL18 Measurements: Mean (fold change relative to vehicle control): 0.9781 fold change
[2]; Conc. 11710 μM
  CCL18 Measurements: Mean (fold change relative to vehicle control): 0.9976 fold change
[2]; Conc. 23420 μM
  CCL18 Measurements: Mean (fold change relative to vehicle control): 1.082 fold change
[2]; Donor 2
  IL-4 induced CCL18 secretion (fold change relative to vehicle control): significantly increased
